From paper PMC5602112 (2017)

Tests used:
Assay in all cases: single-round in vitro transcription termination
Details in all cases: apparent; co-transcriptional
[1] = test system: metI SAM-I riboswitch transcript, GUU (U114A:A137U:A138U) (RNA, riboswitch) ACUUAGAAAAUUGAAAUCGAUAUUUCUUAUCGUGAGAGGUGGAGGGACUGGCCCUUAGAAACCUCAGCAACCGGCUUGUUUUGCAUUUGCAAAGCGCCAAGGUGCUAAAACCAGCAAGCGUUUUUUAUGCUUGGUUGAUAAGAAGAAGCGUUAAACCCCUUCUUCUUAUGAAGAAGGGGUUUUUAUUUUGAAAAGGGAAGGUGUCAGCUAUAUGUCACAGCACGUUGAAACGAAAUUAGCUCAAAUUGGGAA
[2] = test system: metI SAM-I riboswitch transcript, U114A:A138U (RNA, riboswitch) ACUUAGAAAAUUGAAAUCGAUAUUUCUUAUCGUGAGAGGUGGAGGGACUGGCCCUUAGAAACCUCAGCAACCGGCUUGUUUUGCAUUUGCAAAGCGCCAAGGUGCUAAAACCAGCAAGCGUUUUUUAUGCUUGGAUGAUAAGAAGAAGCGUUAAACCCCUUCUUCUUAUGAAGAAGGGGUUUUUAUUUUGAAAAGGGAAGGUGUCAGCUAUAUGUCACAGCACGUUGAAACGAAAUUAGCUCAAAUUGGGAA
[3] = test system: metI SAM-I riboswitch transcript, wild-type (RNA, riboswitch) ACUUAGAAAAUUGAAAUCGAUAUUUCUUAUCGUGAGAGGUGGAGGGACUGGCCCUUAGAAACCUCAGCAACCGGCUUGUUUUGCAUUUGCAAAGCGCCAAGGUGCUAAAUCCAGCAAGCGUUUUUUAUGCUUGGAAGAUAAGAAGAAGCGUUAAACCCCUUCUUCUUAUGAAGAAGGGGUUUUUAUUUUGAAAAGGGAAGGUGUCAGCUAUAUGUCACAGCACGUUGAAACGAAAUUAGCUCAAAUUGGGAA

T50 [1]: ~ 1.3 µM
T50 [2]: ~ 673 nM
T50 [3]: ~ 183 nM
SMILES: C[S+](CC[C@H](N)C(=O)O)C[C@H]1O[C@@H](n2cnc3c(N)ncnc32)[C@H](O)[C@@H]1O (stereo partly drawn)
